Key:
[1] = target: T1, hAR (Homo sapiens, UniProt P10275); experiment: Competitive binding analysis on baculovirus/Sf9 generated hAR extracts with 3H-DHT tracer; conditions: AR Binding IC50, hAR extract, 1 nM 3H-DHT, one hour at 4° C.; mean of multiple tests
T1 construct: made in house; host or cells: baculovirus/Sf9 insect cells
T1 sequence (P10275 1-920): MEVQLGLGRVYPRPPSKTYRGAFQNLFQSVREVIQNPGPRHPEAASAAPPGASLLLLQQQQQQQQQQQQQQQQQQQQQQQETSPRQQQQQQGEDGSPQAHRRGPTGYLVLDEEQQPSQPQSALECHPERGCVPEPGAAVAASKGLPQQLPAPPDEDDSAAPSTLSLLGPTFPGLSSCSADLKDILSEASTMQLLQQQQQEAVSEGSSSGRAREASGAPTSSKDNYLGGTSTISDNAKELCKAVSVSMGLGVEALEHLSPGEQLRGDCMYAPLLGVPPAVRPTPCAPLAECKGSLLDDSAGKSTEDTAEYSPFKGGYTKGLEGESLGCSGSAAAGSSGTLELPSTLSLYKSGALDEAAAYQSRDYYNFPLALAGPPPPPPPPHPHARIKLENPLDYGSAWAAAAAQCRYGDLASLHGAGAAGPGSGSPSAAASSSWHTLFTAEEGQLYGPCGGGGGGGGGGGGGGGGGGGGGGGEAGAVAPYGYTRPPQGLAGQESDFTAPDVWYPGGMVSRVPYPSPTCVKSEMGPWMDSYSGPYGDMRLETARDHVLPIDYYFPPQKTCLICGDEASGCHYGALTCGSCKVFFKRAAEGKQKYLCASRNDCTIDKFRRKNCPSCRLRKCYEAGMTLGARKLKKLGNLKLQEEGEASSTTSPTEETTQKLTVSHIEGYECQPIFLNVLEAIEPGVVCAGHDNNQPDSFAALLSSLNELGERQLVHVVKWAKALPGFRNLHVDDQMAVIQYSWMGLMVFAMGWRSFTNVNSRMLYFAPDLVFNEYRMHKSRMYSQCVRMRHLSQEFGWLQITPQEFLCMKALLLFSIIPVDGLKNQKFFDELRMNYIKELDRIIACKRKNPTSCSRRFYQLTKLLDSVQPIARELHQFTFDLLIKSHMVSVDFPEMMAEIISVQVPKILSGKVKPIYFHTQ

[2] = test system: male Syrian hamsters; experiment: Animal model for inhibition of sebum production (hamster ear); type: in vivo, Syrian hamster; conditions: topical 3.0 w/v %; for % CE reduction: cholesterol ester vs vehicle control; for % CE reduction / % WE reduction: twice daily, five days a week, 4 weeks, right ear; for Sum of WE & CE: sum of % WE and % CE reduction; for % WE reduction: wax ester vs vehicle control
Description: Animal Model for Inhibition of Sebum Production
Luderschmidt et al describes an animal model for testing whether compounds are capable of modulating sebum secretion. Arch. Derm. Res. 258, 185-191 (1977). This model uses male Syrian hamsters, whose ears contain sebaceous glands. The product of Example 14 was screened in this model.
Testing for sebum inhibition was carried out in the following manner. Male Syrian hamsters aged 9 to 10 weeks were introduced into the laboratory environment and acclimated for 2 weeks prior to use in the study. Each group consisted of 5 animals and run in parallel with vehicle and positive controls. Prior to administration, a sufficient quantity each compound was dissolved in 1 mL of a solvent consisting of ethanol, and propylene glycol (70/30% v/v) to achieve a final concentration of 3.0 w/v %.
Animals were dosed topically twice daily, five days a week, for 4 weeks. Each dose consisted of 25 micro liters of vehicle control or drug. The dose was applied to the ventral surfaces of both the right and left ears. All animals were sacrificed approximately 18-24 hours after the final dose. The right ears were collected from each animal and used for sebum analysis.
The ears were prepped for HPLC analysis in the following manner. One 8 mm distal biopsy punch was taken, just above the anatomical “V” mark in the ear to normalize the sample area. The punch was pulled apart. The ventral biopsy surface (the area where the topical dose was directly applied to the sebaceous glands) was retained for testing and the dorsal surface of the biopsy punch was discarded.
Tissue samples were blown with N2 gas and stored at −80° C. under nitrogen until HPLC analysis. In addition to ear samples, an aliquot of each drug and vehicle (at least 250 ul) was also stored at −80° C. for inclusion in the HPLC analysis.
HPLC analysis was carried out on an extract of the tissue sample. Tissue samples were contacted with 3 ml of solvent (a 4:1 admixture of 2,2,4-trimethylpentane and isopropyl alcohol). The mixture was shaken for 15 minutes and stored overnight at room temperature, protected from light. The next morning 1 milliliter of water was added to the sample and shaken for 15 minutes. The sample was then centrifuged at approximately 1500 rpm for 15 minutes. Two ml of the organic phase (top layer) was transferred to a glass vial, dried at 37° C., under nitrogen, for approximately 1 hour, and then lyophilized for approximately 48 hours. The samples were then removed from the lyophilizer and each vial was reconstituted with 600 μl of solvent A (trimethylpentane/tetrahydrofuran (99:1). The samples were then recapped and vortexed for 5 minutes.
200 μl of each sample was then transferred to a pre-labeled 200 μl HPLC vial with 200 μL glass inserts. The HPLC vials were placed in the autosampler tray for the Agilent 1100 series HPLC unit. The Agilent 1100 HPLC system consisted of a thermostated autosampler, a quarternary pump, a column heater, and an A/D interface module. All components were controlled by Agilent ChemStation software. A Waters Spherisorb S3W 4.6×100 mm analytical column was maintained at 30° C. by the Agilent column heater unit. The HPLC autosampler was programmed to maintain the sample temperature at 20 C. throughout the run.
10 uL of each sample was injected in triplicate into the column. Two solvents were used for the solvent gradient. Solvent A was an admixture of trimethylpentane and tetrahydrofuran (99:1). Solvent B was ethylacetate. The gradient utilized is described in the table below: […]
The Sedex 75 Evaporative Light Scattering Detector (ELSD) was operated at 45° C. with a gain of 5, and N2 pressure maintained at 3.1 bar. Analog signal obtained by the instrument was sent to the Agilent A/D interface module where it was converted to a digital output. The conversion was based on a 10000 mAU/volt set point and the data rate was set at 10 Hz (0.03 min). […]

## N#Cc1ccc(O[C@@H]2CCCC[C@H]2C#N)cc1C(F)(F)F (single isomer, unassigned) [Example 72, (trans)-(−)-4-(2-Cyano-cyclohexyloxy)-2-trifluoromethyl-benzonitrile]
[1]
  IC50: 43 nM
[2]
  % CE reduction: 68%
  Sum of WE & CE: 153
  % WE reduction: 85%

## N#Cc1ccc(O[C@@H]2CCCCC2C#N)cc1C(F)(F)F (stereo in doubt) [Example 14, -4-(2-Cyano-cyclohexyloxy)-2-trifluoromethyl-benzonitrile]
[1]
  IC50: 58 nM
[2]
  % CE reduction: 84%
  Sum of WE & CE: 179
  % WE reduction: 95%

## CC1CCCCC1Oc1ccc(C#N)c(C(F)(F)F)c1 (stereo not drawn) [Example 8, 4-(2-Methyl-cyclohexyloxy)-2-trifluoromethyl-benzonitrile]
[1]
  IC50: 106 nM

From patent US7670613B2, “Androgen modulators” (Pfizer Inc., priority 2004, dated 2010)
